Source: patent publication US11191811B2, “Osteocalcin as a treatment for frailty associated with aging” (THE TRUSTEES OF COLUMBIA UNIVERSITY IN THE CITY OF NEW YORK, priority 2014, dated 2021)

Legend:
[1] = Crossing of the blood-brain barrier; details: stated without test description
Osteocalcin−/− mice = assay: Behavioral tests of Osteocalcin−/− mice with ICV infusion (DLT, EPMT, OFT, FST, TST); format: in vivo, mouse; details: for anxiety / depression: ICV infusion 10 ng/hour, week-long, Osteocalcin−/− mice
Protocol: FIG. 12. Administration of osteocalcin alleviates anxiety and depression. (A-E) Behavioral analyses of adult Osteocalcin^−/− mice receiving recombinant uncarboxylated osteocalcin through intracerebro-ventricular (ICV) infusions. (A) Light and Dark test, (B) Elevated plus maze test, (C) Open field test, (D) Forced swim test, and (E) Tail suspension test performed in a cohort of WT (n=7) and Osteocalcin^−/− infused with vehicle or recombinant uncarboxylated osteocalcin (10 ng/hour). In each set of three bars, the rightmost bar represents the results following administration of osteocalcin.
For osteocalcin delivery to pregnant mice, IP injections (240 ng/day) were performed as soon as a plug was present daily until delivery (E0.5-E18.5). For osteocalcin or leptin infusion in adult Osteocalcin^−/− or ob/ob mice, pumps (Alzet micro-osmotic pump, Model 1002) delivering osteocalcin (300 ng/hr), leptin (50 ng/hr), or vehicle were surgically installed subcutaneously in the backs of 3-month old mice. For the postnatal rescue of cognitive functions in Osteocalcin^−/− mice, osteocalcin (10 ng/hour) or vehicle were delivered intrasubventricularly (icv) as previously described (Ducy et al., 2000, Cell 100:197-207). Leptin and osteocalcin content in sera and tissues were determined by ELISA.
Tail suspension testing was performed as previously described (Mayorga et al., 2001, J. Pharmacology Exper. Therapeutics 298:1101-1107; Steru et al., 1985, Psychopharmacology 85:367-370). Mice were transported a short distance from the holding facility to the testing room and left there undisturbed for at least 1 hour. Mice were individually suspended by the tail (distance from floor was 35 cm) using adhesive tape (distance from tip of tail was 2 cm). […] The parameter recorded was the number of seconds spent immobile. Mice were scored by a highly trained observer, over a 5 min period, blind to the genotype of the mice.
Anxiety and locomotor activity of mice were measured using the open field test (David et al., 2009, Neuron 62:479-493). Each animal was placed in a 43×43 cm open field chamber, and tested for 30 min. Mice were monitored throughout each test session by video tracking and analyzed using Matlab software. Mice were placed individually into the center of the open-field arena and allowed to explore freely. The overall motor activity was quantified as the total distance travelled. The anxiety was quantified measuring the number of rearings and the time and distance spent in the center versus periphery of the open field chamber (in %).
Each mouse was allowed to explore the apparatus for 5 min. Global activity was assessed by measuring the number of entries […] (David et al, 2009, Neuron 62:479-493). Anxiety was assessed by comparing the time spent in the open arms.
The forced swimming test was carried out according to the method described by David et al., 2009, Neuron 62:479-493. Briefly, mice were dropped individually into glass cylinders (height: 25 cm, diameter: 10 cm) containing 10 cm water height., maintained at 23-25° C. Animals were tested for a total of 6 min. The total duration of immobility time was recorded. Mice were considered immobile when they made no attempts to escape with the exception of the movements necessary to keep their heads above the water. Mice were scored by an observer blind to their genotypes.
The test was performed in a quiet, darkened room. Mice were individually housed in cages containing a handful of bedding from their home cage and acclimated to the room at least 1 h before the test. Naïve mice were placed individually in the testing chamber in the dark compartment. The test was 5 min in duration, and time spent and number of entries in light compartments were recorded a highly trained observer, blind to the genotype of the mice. […]

wild type mice = assay: Insulin sensitivity test after subcutaneous infusion; format: in vivo, mouse; details: 0.3 or 3 ng/hour subcutaneously for 18 days, 0-120 minutes after insulin injection
Protocol: FIG. 3. Osteocalcin subcutaneous infusion increases insulin sensitivity in wild-type mice. Wild-type mice were infused subcutaneously with indicated doses of recombinant osteocalcin or PBS for 18 days before receiving a single injection of insulin. Blood glucose was measured thereafter at indicated times.
The effect of uncarboxylated osteocalcin on insulin sensitivity was also examined. Wild type mice were infused subcutaneously with 0.3 or 3 ng/hour doses of recombinant osteocalcin or PBS for 18 days before receiving a single injection of insulin. Blood glucose was measured thereafter at the indicated times from 0-120 minutes after injection.

muscle = assay: Gene expression in muscle (qPCR); format: in vivo, mouse
Protocol: FIG. 31. Osteocalcin treatment increases muscle function in young and old WT mice. (A-B) Performance during endurance exercise of 3 month-old WT, Gprc6af/f and Gprc6aMck−/− female mice treated with Ocn (n=6-10 per group). (C) Performance during endurance exercise of 12 and 15 month-old WT female mice treated with Ocn (n=6-10 per group). (D) Western blot analysis of Akt phosphorylation (Ser473) in muscles of WT mice injected with Ocn (500 ng/g) after a single bout of exercise. (E) Western blot analysis of AMPK phosphorylation ([…]) in muscles of WT mice injected with Ocn (500 ng/g) after a single bout of exercise. (F) Western blot analysis of HSL phosphorylation (Ser563) in muscles of WT mice injected with Ocn (500 ng/g) after a single bout of exercise. (G) Uptake of ^3H-2-DG in glycolytic (Gly—white quadriceps) and oxidative (Ox—red quadriceps) muscles after a single bout of exercise in 15 month-old WT mice receiving Ocn before running (n=5 per group). (H) Performance during endurance exercise of 10 month-old WT mice receiving Ocn for 28 days (n=7 per group). (I) Expression of Cd36, Fatp1 and Cpt1b in gastrocnemius of 10 month-old WT mice receiving Ocn for 28 days (n=7 per group). (J) Western blot analysis of Akt phosphorylation (Ser473) in muscles of WT mice receiving Ocn for 28 days (n=7 per group). (K) Schematic representation of how osteocalcin signaling in myofibers and IL-6 cooperate to increase exercise capacity.
Serum osteocalcin, PINP, CTX, and insulin levels were measured using ELISA assays. Blood glucose level was measured using an Accu-Check glucometer. Urine 3-MHT was measured as previously described (Aranibar et al., 2011, Anal. Biochem. 410:84-91). Determination of cAMP accumulation was performed using a commercial kit (R&D). For gene expression, 1 μg of total RNA was reverse transcribed into cDNA. qPCR analyses were performed using a SYBER green master mix (Applied Biosciences) and a CFX-Connect real time PCR (Bio-Rad). Relative expression levels of each gene were normalized to that of Hprt or Gapdh. […]

[2] = listed as undercarboxylated/uncarboxylated osteocalcin

uncarboxylated osteocalcin: Recombinant uncarboxylated mouse osteocalcin, bacterially produced, purified on glutathione beads and cleaved from the GST subunit by thrombin (YLGASVPSPDPLEPTREQCELNPACDELSDQYGLKTAYKRIYGITI)
crossing of the blood-brain barrier [1]: crosses
crossing of the blood-brain barrier [1, 2]: can cross
anxiety (Osteocalcin−/− mice): corrected
depression (Osteocalcin−/− mice): corrected
anxiety (Osteocalcin−/− mice; listed as osteocalcin): alleviates
depression (Osteocalcin−/− mice; listed as osteocalcin): alleviates
anxiety (Osteocalcin−/− mice; [2]): rescued
depression (Osteocalcin−/− mice; [2]): rescued
learning and memory (Osteocalcin−/− mice; direct administration to the brains of adult Osteocalcin−/− mice): rescued
insulin sensitivity (wild type mice): increased
insulin sensitivity (wild type mice; listed as Osteocalcin): increases
expression in muscles of Glut1 (muscle; at rest or after exercise): did not affect
expression in muscles of Glut4 (muscle; at rest or after exercise): did not affect
expression in muscle of Fatp1 (muscle; mini-pumps 90 ng/hour for 28 days): increase
